# Source: patent US10894036B2, “Use of marizomib for the treatment of central nervous system (CNS) cancers” (Celgene International II Sàrl, priority 2016, dated 2021)
# Entries after “also recorded” stand apart in the source; their conditions may differ.
# Assays:
# [1] = tested on: WHO Grade IV Malignant Glioma; experiment: Phase 1/2 MRZ + BEV and MRZ monotherapy in recurrent G4 MG: tumor response by RANO, PFS, OS; type: in vivo, human; conditions: for Best Response NE (2), patients: MRZ monotherapy ITT
# Description: (§1) The drugs were infused on 28-Day Cycles.
# Tumor response, including PD activity, progression-free survival (PFS), and overall survival (OS) will be assessed. Tumor response will be assessed by the Investigators using RANO 2010 criteria. The overall confirmed response rate will be presented. The response rate, PFS, and OS will also be tabulated by dose cohorts in Part 1 Phase 1 and for all response-evaluable patients in Part 2 Phase 2 and Part 3 Phase 2. Endpoints of response based on tumor assessments will be calculated for subjects who received at least 3 doses of MRZ and had at least 1 post-dose tumor evaluation.
# [2] = tested on: trypsin-like (T-L) proteasome activity; experiment: Proteasome inhibition in packed whole blood: T-L; type: in vivo, human; conditions: for compensatory hyperactivation of T-L and C-L proteasome subunits: repeated dosing
# Description: as §1
# (§2) Change in proteasome activities in packed whole blood (PWB) lysates and peripheral blood mononuclear cell (PBMC) lysates, comparing pre-drug and post drug levels on Days 1, 8, and 15 of Cycle 1; Days 1 and 15 of each Cycle thereafter; and at the End-of Treatment Visit.
# (§3) The laboratory correlates include assessment of the percentage inhibition of proteasome function (evaluated by measurement of CT-L, T-L and C-L activity in blood isolates such as whole blood and PBMC lysates.
# (§4) PD analysis will include change in proteasome activities (whole blood lysates and PBMC lysates) by comparing pre-drug and post drug levels on Days 1, 8, and 15 (i.e., for each dose) of Cycle 1 and Days 1 and 15 (i.e., for the first and last doses) of each cycle thereafter.
# [3] = Compassionate use of marizomib in CNS-myeloma patients: safety; type: in vivo, human
# Method: This example sets forth seven case studies in which CNS-MM (i.e., multiple myeloma with CNS involvement) was treated using marizomib alone or in combination with other agents.
# As set forth herein, 7 patients were treated under single patient compassionate use protocols with MRZ for CNS-myeloma. Marizomib was well-tolerated. […] One patient has been on the study for 13 months with complete resolution of both […].
# [4] = tested on: human glioblastoma (GBM) cell lines; experiment: Migration and matrix invasion of GBM cell lines; type: cell-based; conditions: either of two GBM lines
# Description: In vitro studies of multiple glioma cell lines were highly sensitive to MRZ. […] Treatment with MRZ decreased matrix invasion by either of two GBM lines by approximately 90%, a highly significant effect.
# D54MG cells = experiment: Intracranial GBM xenograft survival; type: in vivo; conditions: athymic BALB/c nu/nu mice, MRZ IV twice weekly
# Method: 1×10^5 D54MG cells implanted into right frontal lobes of athymic BALB/c nu/nu mice. MRZ administered IV twice weekly.
# [5] = tested on: chymotrypsin-like (CT-L) proteasome activity; experiment: Proteasome inhibition in packed whole blood: CT-L; type: in vivo, human
# Description: as §1, §2, §3, §4
# proteasome = experiment: Proteasome activity in monkey brain; type: in vivo; conditions: monkey (primate)
# [6] = BEV serum pharmacokinetics (Phase 1 MRZ + BEV); type: in vivo, human; conditions: for BEV pharmacokinetic parameters: effect of co-administration: with MRZ
# Method: The drugs were infused on 28-Day Cycles. Tumor response is assessed every other cycle by RANO criteria.
# [7] = 10 mg/kg dose, Gordon et al., 2001; cited from earlier work
# [8] = MRZ + BEV N = 10, MRZ monotherapy N = 7
# [9] = MRZ + BEV N = 22, MRZ monotherapy N = 18
# [10] = MRZ monotherapy 0.8 mg/m^2, first 15 recurrent glioma patients
# [11] = PWB post-MRZ infusion (peak effect), 0.7 mg/m^2 (17 May 2016)
# [12] = BEV 10 mg/kg IV, serum, C1D15, marizomib 0.7 mg/m^2 cohort
# [13] = BEV 10 mg/kg IV, serum, C1D15, marizomib 0.8 mg/m^2 cohort
# [14] = BEV 10 mg/kg IV, serum, C1D15, marizomib […]^2 cohort
# [15] = BEV PK, C1D15, MRZ 0.7 mg/m^2 cohort (17 May 2016)
# [16] = BEV PK, C1D15, MRZ 0.7 mg/m^2 cohort (Table 43)
# [17] = BEV PK, C1D15, MRZ 0.8 mg/m^2 cohort (17 May 2016)
# [18] = BEV PK, C1D15, MRZ 0.8 mg/m^2 cohort (Table 43)
# [19] = across all dose cohorts, BEV 10 mg/kg with MRZ
compound,measurement,setting,value
C[C@@]12OC(=O)[C@]1([C@@H](O)[C@@H]1C=CCCC1)NC(=O)[C@@H]2CCCl [marizomib],OS 6 mo %,[1]; All Patients,64%
same,OS 9 mo %,[1]; All Patients,64%
same,"Median OS, methylated MGMT promoter",[1]; [8],Undefined
same,"Median PFS, methylated MGMT promoter",[1]; [8],1.7 Months
same,"OS 6 Months, methylated",[1]; [8],83%
same,"OS 9 Months, methylated",[1]; [8],83%
same,"Median OS, unmethylated MGMT promoter",[1]; [9],Undefined
same,"Median PFS, unmethylated MGMT promoter",[1]; [9],1.9 Months
same,"OS 6 Months, unmethylated",[1]; [9],65%
same,"OS 9 Months, unmethylated",[1]; [9],65%
same,"partial remission, patients",[1]; [10],1
same,"stable disease, additional patients",[1]; [10],2
same,"Best Response NE (2), patients","[1]; methylated, N = 7",0
same,"Best Response NE (2), patients","[1]; unknown, N = 5",1
same,"Best Response NE (2), patients","[1]; unmethylated, N = 18",1
same,"PFS 3 mo, methylated","[1]; MRZ monotherapy, N = 7",40%
same,"PFS 3 mo, unmethylated","[1]; MRZ monotherapy, N = 18",20%
same,patients on the study for ≥4 cycles,"[1]; MRZ monotherapy, N = 30",Six
same,progression on marizomib alone,"[1]; MRZ monotherapy, N = 30",most patients demonstrated rapid progression
same,"Best Response, Pt 0511","[1]; MRZ monotherapy, 2nd recurrence, current cycle 10",PR (≥50% decrease compared with baseline in the sum of products of perpendicular diameters of all measurable enhancing lesions sustained for at least 4 weeks)
same,OS 6 mo %,[1]; Methylated MGMT Promoter,83%
same,OS 9 mo %,[1]; Methylated MGMT Promoter,83%
same,OS 6 mo %,[1]; Unmethylated MGMT Promoter,65%
same,OS 9 mo %,[1]; Unmethylated MGMT Promoter,65%
same,patients found to respond to marizomib monotherapy,[1]; ≥ stable disease and >4 cycles (Table 38),four
same,% T-L inhibition,[2]; [11],77.3 ± 10.5 (3) %
same,compensatory hyperactivation of T-L and C-L proteasome subunits,[2],overcome compensatory hyperactivation of proteasome subunits; also recorded: overcomes compensatory hyperactivation
same,compensatory hyperactivation of T-L and C-L proteasome subunits,[2]; listed as MRZ,overcomes compensatory hyperactivation of proteasome subunits
same,CNS adverse events,[3]; 7 CNS-MM patients,no CNS adverse events
same,tolerability,[3]; 7 CNS-MM patients,well-tolerated
same,CNS adverse events,"[3]; 7 CNS-MM patients, listed as Marizomib",No CNS-adverse events
same,Safety,[3]; Case 1,No adverse events were reported
same,Safety,"[3]; Case 1, listed as MRZ",MRZ was well tolerated
same,Safety,[3]; Case 2,No adverse events or serious adverse events were observed
same,Safety,"[3]; Case 2, listed as MRZ",No concerning AEs
same,Safety,[3]; Case 3,grade 1 adverse event
same,Safety,"[3]; Case 3, listed as MRZ",Grade 1 shortness of
same,Safety,[3]; Case 4,well-tolerated with no adverse events reported
same,Safety,"[3]; Case 4, listed as MRZ",Tolerated treatment
same,Safety,[3]; Case 5,serious adverse event
same,Safety,"[3]; Case 5, listed as MRZ","AE due to PD,"
same,Safety,[3]; Case 6,grade 2 adverse event
same,Safety,"[3]; Case 6, listed as MRZ","Overall, no safety"
same,Safety,"[3]; Case 7, listed as MRZ",No adverse events or safety concerns were noted; also recorded: No AEs or safety
same,decrease of matrix invasion,[4],approximately 90%
same,activity in intracranial GBM xenograft,D54MG cells,Active
same,% CT-L inhibition,[5]; [11],100 ± 0 (3) %
same,% CT-L inhibition,"[5]; PWB post-Marizomib infusion (peak effect), 0.7 mg/m^2",100 ± 0 (3) %
same,% CT-L inhibition,"[5]; PWB post-Marizomib infusion (peak effect), 0.8 mg/m^2",100 ± 0 (3) %
same,"sustained inhibition of the CT-L domain, pre-infusion","[5]; packed whole blood, up to two weeks after marizomib dosing",60-80%
same,proteasome activity in brain,proteasome,inhibition of proteasome activity; also recorded: inhibits proteasome activity
bevacizumab [reference compound],Cmax D1,"[6]; BEV 10 mg/kg IV, serum, C1D1, marizomib 0.7 mg/m^2 cohort",193 ± 8 (2) μg/mL
same,Cmax D1,"[6]; BEV 10 mg/kg IV, serum, C1D1, marizomib 0.8 mg/m^2 cohort",267 ± 13.3 (3) μg/mL
same,Cmax D1,"[6]; BEV 10 mg/kg IV, serum, C1D1, marizomib […]^2 cohort",275 ± 37.5 (6) μg/mL
same,Cmax D15,[6]; [12],402 ± 123 (3) μg/mL
same,Cmin D15,[6]; [12],81.1 ± 17.4 (2) μg/mL
same,Cmax D15,[6]; [13],380 ± 56.5 (2) μg/mL
same,Cmin D15,[6]; [13],85.0 ± 9.87 (3) μg/mL
same,Cmax D15,[6]; [14],351 ± 46.6 (5) μg/mL
same,Cmin D15,[6]; [14],89.7 ± 6.2 (6) μg/mL
same,Cmax D1,"[6]; BEV PK, C1D1, MRZ 0.7 mg/m^2 cohort (17 May 2016)",282 ± 89 (3) μg/mL
same,Cmax D1,"[6]; BEV PK, C1D1, MRZ 0.7 mg/m^2 cohort (Table 43)",193 ± 8 (2) μg/mL
same,Cmax D1,"[6]; BEV PK, C1D1, MRZ 0.8 mg/m^2 cohort (17 May 2016)",267 ± 133 (3) μg/mL
same,Cmax D1,"[6]; BEV PK, C1D1, MRZ 0.8 mg/m^2 cohort (Table 43)",267 ± 13.3 (3) μg/mL
same,Cmax D15,[6]; [15],402 ± 123 (3) μg/mL
same,Cmin D15,[6]; [15],114 ± 34 (3) μg/mL
same,Cmax D15,[6]; [16],402 ± 123 (3) μg/mL
same,Cmin D15,[6]; [16],81.1 ± 17.4 (2) μg/mL
same,Cmax D15,[6]; [17],404 ± 40 (3) μg/mL
same,Cmin D15,[6]; [17],85 ± 9.9 (3) μg/mL
same,Cmax D15,[6]; [18],380 ± 56.5 (2) μg/mL
same,Cmin D15,[6]; [18],85.0 ± 9.87 (3) μg/mL
same,Mean Day 15 Cmax of BEV,"[6]; Study 108, BEV 10 mg/kg with MRZ",379 µg/mL
same,mean Cmax of bevacizumab on Day 1,[6]; [19],275 µg/mL
same,mean Cmax of bevacizumab on Day 1 (second value so printed),[6]; [19],379 µg/mL
same,mean Cmin of bevacizumab on Day 15,[6]; [19],95 µg/mL
same,BEV pharmacokinetic parameters: effect of co-administration,[6],not affected by co-administration
same,BEV pharmacokinetic parameters: effect of co-administration,[6]; listed as BEV,no effect of MRZ on BEV pharmacokinetics; also recorded: not affected by co-administration of MRZ
same,Cmax of bevacizumab at Day 0,[7],284 µg/mL
